pKd: −log10 of the molar value.
These compounds were tested against T1, HsrA (HP1043) (Helicobacter pylori, UniProt O25684) (assay: isothermal titration calorimetry). Settings: read-out: ITC^1 / Kd.
T1 construct: gene HP_1043
T1 sequence (O25684 1-223): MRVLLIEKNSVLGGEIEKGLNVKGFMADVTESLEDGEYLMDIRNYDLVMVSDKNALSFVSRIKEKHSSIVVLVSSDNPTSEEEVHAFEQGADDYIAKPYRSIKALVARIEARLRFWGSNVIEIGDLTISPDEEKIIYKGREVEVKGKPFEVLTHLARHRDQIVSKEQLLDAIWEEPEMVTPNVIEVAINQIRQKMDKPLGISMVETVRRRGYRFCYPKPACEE
Type: binding
Description: isothermal titration calorimetry on HsrA (HP1043)
`CC1=C(C(=O)OCC(C)C)C(c2cccc([N+](=O)[O-])c2)C2=C(CC(C)(C)CC2=O)N1` (stereo not drawn) [MD2] gave a pKd of 4.80.
In the case of `CC1=C(C(=O)OCC(C)C)C(c2cc(Br)cc([N+](=O)[O-])c2O)C2=C(CC(C)(C)CC2=O)N1` (stereo not drawn) [MD7], the pKd was 4.64.
With `CC1=C(C(=O)OCc2ccccc2)C(c2cc(Br)cc([N+](=O)[O-])c2O)C2=C(CCC(C)(C)C2=O)N1` (stereo not drawn) [HM6] the pKd was 5.27.
With `CC1=C(C(=O)OCC(C)C)C(c2cc([N+](=O)[O-])ccc2O)C2=C(CC(C)(C)CC2=O)N1` (stereo not drawn) [MD1] the pKd was 5.46.
For `CC1=C(C(=O)OCC(C)C)C(c2cc(Br)ccc2O)C2=C(CC(C)(C)CC2=O)N1` (stereo not drawn) [MD6], the pKd was 4.60.
Compound `CC1=C(C(=O)OCc2ccccc2)C(c2cc(Br)cc(Br)c2O)C2=C(CCC(C)(C)C2=O)N1` (stereo not drawn) [HM4] has a pKd of 5.40.
